Results: ChEMBL document CHEMBL1146821, “Pyridazines. Part 36: Synthesis and antiplatelet activity of 5-substituted-6-phenyl-3(2H)-pyridazinones” (Bioorg Med Chem Lett, 2004)

Organism: Homo sapiens
Test: The antiplatelet activity by the turbidimetric method in washed human platelets using thrombin as agonist; Precipitates under the conditions of the study.
Assay type: functional; call rule not given here
`Oc1cc(-c2ccc(Cl)cc2)c(-c2ccccc2)nn1` was tested, and the IC50 was “Precipitates under the conditions of the study”.
For `O=Cc1ccc(-c2cc(O)nnc2-c2ccccc2)cc1`, the IC50 was “Precipitates under the conditions of the study”.
For `Oc1cc(-c2ccccc2)c(-c2ccccc2)nn1`, the IC50 was “Precipitates under the conditions of the study”.

Organism: Homo sapiens
Test: The antiplatelet activity was tested by the turbidimetric method in washed human platelets using thrombin as agonist.
Assay type: functional
`Oc1cc(-c2ccco2)c(-c2ccccc2)nn1` was tested, and the IC50 was 635 µM.
`CCOC(C#Cc1cc(O)nnc1-c1ccccc1)OCC` was tested, and the IC50 was > 1000 µM.
For `CCOC(=O)C(=Cc1cc(=O)[nH]nc1-c1ccccc1)C(=O)OCC`, the IC50 was 20 µM.
Molecule `COC(=O)C(=Cc1cc(=O)[nH]nc1-c1ccccc1)C(=O)OC` has an IC50 of 45 µM.
For `C#Cc1cc(O)nnc1-c1ccccc1`, the IC50 was 500 µM.
Work on `Oc1cc(Sc2ccccc2)c(-c2ccccc2)nn1` yielded an IC50 of 15 µM.
`COC(=O)/C=C/c1cc(O)nnc1-c1ccccc1` was tested, and the IC50 was > 1000 µM.
For `OCCCC#Cc1cc(O)nnc1-c1ccccc1`, the IC50 was > 1000 µM.
`OCC#Cc1cc(O)nnc1-c1ccccc1` was tested, and the IC50 was > 1000 µM.
`N#C/C=C/c1cc(=O)[nH]nc1-c1ccccc1` was tested, and the IC50 was > 1000 µM.
With `COCCOC(=O)/C=C/c1cc(O)nnc1-c1ccccc1` the IC50 was > 1000 µM.
With `OCCC#Cc1cc(O)nnc1-c1ccccc1` the IC50 was > 2000 µM.
Molecule `O=C1C(CC[S+]([O-])c2ccccc2)C(=O)N(c2ccccc2)N1c1ccccc1` (stereo unspecified) [SULFINPYRAZONE] has an IC50 of 500 µM.
Work on `Cc1ccc(-c2cc(O)nnc2-c2ccccc2)cc1` yielded an IC50 of 152 µM.
With `O=C(/C=C/c1cc(=O)[nH]nc1-c1ccccc1)c1ccccc1` the IC50 was 25 µM.

Organism: Homo sapiens
Test: The antiplatelet activity by the turbidimetric method in washed human platelets using thrombin as agonist; Promotes platelet aggregation.
Assay type: functional
With `Oc1cc(Oc2ccccc2)c(-c2ccccc2)nn1` the IC50 was “Promotes platelet aggregation”.

Organism: Homo sapiens
Test: The antiplatelet activity by the turbidimetric method in washed human platelets using thrombin as agonist; NA is inactive
Assay type: functional
In the case of `CCOC(=O)/C=C/c1cc(=O)[nH]nc1-c1ccccc1`, the IC50 is reported as “Not Active”.
`O=c1cc(/C=C/c2ccccc2)c(-c2ccccc2)n[nH]1` was tested, and the IC50 was “Not Active”.
